“Also recorded” adds a separate entry of the source.
How the values were obtained:
Format in all cases: in vivo, rat
[1] = Bone mass (micro-CT) and bone mineral density (DXA), growing healthy rats; settings: for BMD value (DXA) / trabecular bone mass (3D-CT): vs. Ct1 group
Procedure: (§1) 6-week-old growing male F344 rats were used.
(§2) (2) Experimental Groups (n=10 in Each Group) (i) Control group (hereinafter, referred to as “Ct1 group”) (ii) Anti-Siglec-15 antibody administration group (hereinafter, referred to as “Sig-15 Ab administration group”): The #32A1 antibody was used as an anti-Siglec-15 antibody. The anti-Siglec-15 antibody was subcutaneously administered once every 3 weeks at a dosage of 0.25, 1 or 4 mg/kg.
(§3) 6 weeks after the start of administration (age of 6 weeks to age of 12 weeks). After the end of the period (age of 12 weeks), the animals were euthanized, and evaluation was performed.
(§4) Micro-CT imaging of the femur, the tibia and the fifth lumber vertebra was performed, and the right femur major axis length was measured.
BMD measurement of the lumber vertebra (first to third lumber vertebrae) and the left distal femur end was performed by dual energy X-ray absorptiometric (DXA) method using a bone mineral density measuring apparatus (manufactured by Hitachi Aloka Medical, Ltd.).

serum TRACP-5b [2] = test: Bone resorption marker (serum TRACP-5b) by ELISA, pediatric steroid-induced osteoporosis model rats; settings: after 6 weeks (age of 12 weeks)
Procedure: (§5) 6-week-old growing female LEW/Cr1Crlj rats were used.
(§6) On the other hand, a steroid-induced osteoporosis model with rats has not been established. Thus, in this Example, a model rat with Prednisolone 25 mg/pellet/60 days implanted under the skin of a 6-week-old female LEW/Cr1Crlj rat was employed as a pediatric steroid-induced osteoporosis model. In this model, it was confirmed that 2, 4 and 6 weeks after implantation of prednisolone, the femur BMD decreased, and the maximum stress of each of the femur and the lumber vertebra decreased.
(§7) (3) Experimental Group (n=10 in Each Group) (i) Sham group: Sham-operation+Vehicle (PBS) (subcutaneous administration) (ii) GC group: Prednisolone (PSL) pellet 25 mg/pellet/60 days-subcutaneous implantation (GC)+Vehicle (PBS) (subcutaneous administration) (iii) GC+Siglec-15Ab group: GC treatment was performed, and an anti-Siglec-15 antibody was subcutaneously administered once every 3 weeks at a dosage of 1 mg/kg (low dosage) or at a dosage of 10 mg/kg (high dosage). The #32A1 antibody was used as the anti-Siglec-15 antibody. […]
(§8) Before the start of administration, and 6 weeks after administration and before euthanasia, blood was collected from the tail vein, and the values of a bone formation marker (serum osteocalcin) and a bone resorption marker (serum TRACP-5b) in the blood were measured by an ELISA method.

[3] = Compression test of the distal femur end, pediatric steroid-induced osteoporosis model rats; settings: GC model rats, age of 12 weeks, vs. GC group
Procedure: as §5, §6
(§9) (3) Experimental Group (n=10 in Each Group) (i) Sham group: Sham-operation+Vehicle (PBS) (subcutaneous administration) (ii) GC group: Prednisolone (PSL) pellet 25 mg/pellet/60 days-subcutaneous implantation (GC)+Vehicle (PBS) (subcutaneous administration) (iii) GC+Siglec-15Ab group: GC treatment was performed, and an anti-Siglec-15 antibody was subcutaneously administered once every 3 weeks at a dosage of 1 mg/kg (low dosage) or at a dosage of 10 mg/kg (high dosage). The #32A1 antibody was used as the anti-Siglec-15 antibody.
(§10) 6 weeks after the start of administration (age of 6 weeks to age of 12 weeks). After the end of the period (age of 12 weeks), the animals were euthanized, and evaluation was performed. […]

osteoclasts [4] = test: TRACP staining of osteoclasts in the primary spongiosa region, pediatric steroid-induced osteoporosis model rats; settings: GC model rats, proximal tibia, age of 12 weeks, vs. GC group (ALN also vs. Sham group)
Procedure: as §5, §6, §9, §10

osteoclasts [5] = test: TRACP staining of osteoclasts, growing healthy rats; settings: age of 12 weeks, vs. Ct1 group
Procedure: as §1, §2, §3
(§11) Decalcified tissue sample: knee joint disarticulation was performed, and samples of a coronal section tissue of the proximal tibia (proximal right knee tibia ½) and a fifth lumber vertebra coronal section tissue were prepared.
(§12) Osteoclastic cells were detected and evaluated by chemical staining with tartrate-resistant acid phosphatase (TRACP) (hereinafter, referred to as “TRACP staining”) and counter staining with methyl green. The growth cartilage part was detected and evaluated by safranine O staining (staining of acidic mucopolysaccharide).

[6] = Body weight, head trunk length and femur length, pediatric steroid-induced osteoporosis model rats; settings: GC model rats
Procedure: as §5, §6, §9, §3
(§13) The head trunk length was measured 0, 3 and 6 weeks after administration. The body weight was measured once a week.
(§14) The femur length was measured under anesthesia every 3 weeks by micro-CT imaging.
(§15) Micro-CT imaging of the femur and the tibia was performed, and the right femur length was measured.

[7] = Head trunk length and femur length, growing healthy rats; settings: age of 12 weeks, vs. Ct1 group
Procedure: as §1, §2, §3, §13, §14, §4

[8] = tested on: growth cartilage and primary spongiosa region; test: Micro-CT and histological evaluation of growth at the proximal tibia, growing healthy rats
Procedure: as §1, §2, §3
For bone labeling, calcein was administered 7 days before and 3 days before euthanasia (at an interval of 4 days). The calcein was dissolved in a 1.4% sodium bicarbonate solution at a concentration of 10 mg/ml, and subcutaneously injected to each animal at a dosage of 10 mg/kg.
as §4
Non-decalcified hard tissue sample: a coronal section tissue of proximal left tibia ½ (length: about 1.5 cm) was used. The tissue was immersed and fixed in 70% ethanol, and then stored in a cool and dark place. The resulting non-decalcified hard tissue sample was used for Villanueva staining, bright-field observation and fluorescent observation, and quantitative bone morphometry.
as §11
With the non-decalcified hard tissue sample and the decalcified tissue sample, the growth cartilage plate width and the longitudinal growth rate were histologically measured to evaluate growth disorder (“Modern Bone Histomorphometry”, 2014, WENET, Inc.).
as §12

serum osteocalcin [9] = test: Bone formation marker (serum osteocalcin) by ELISA, growing healthy rats; settings: age of 12 weeks, vs. Ct1 group
Procedure: as §1, §2, §3
(§16) Before the start of administration, and 6 weeks after administration and before euthanasia, blood was collected from the tail vein, and the values of a bone formation marker (serum osteocalcin) and a bone resorption marker (serum TRACP-5b) were measured by an ELISA method.

serum TRACP-5b [10] = test: Bone resorption marker (serum TRACP-5b) by ELISA, growing healthy rats; settings: age of 12 weeks
Procedure: as §1, §2, §3, §16

[11] = Bone mass (micro-CT, bone microstructure analysis) and BMD (DXA) of the distal femur, pediatric steroid-induced osteoporosis model rats; settings: GC model rats, age of 12 weeks
Procedure: (3) Experimental Group (n=10 in Each Group) (i) Sham group: Sham-operation+Vehicle (PBS) (subcutaneous administration) (ii) GC group: Prednisolone (PSL) pellet 25 mg/pellet/60 days-subcutaneous implantation (GC)+Vehicle (PBS) (subcutaneous administration) (iii) GC+Siglec-15Ab group: GC treatment was performed, and an anti-Siglec-15 antibody was subcutaneously administered once every 3 weeks at a dosage of 1 mg/kg (low dosage) or at a dosage of 10 mg/kg (high dosage). […] (iv) GC+ALN group: GC treatment was performed, and ALN was subcutaneously administered twice a week at a dosage of 0.014 mg/kg (low dosage) or at a dosage of 0.140 mg/kg (high dosage).
BMD and BMC measurements of the lumber vertebra and the distal left femur were performed by a DXA method using a bone densitometer (manufactured by Hitachi Medical, Ltd.).

[12] = tested on: growth cartilage and primary spongiosa region; test: Micro-CT and histological evaluation of growth at the proximal tibia, pediatric steroid-induced osteoporosis model rats; settings: GC model rats
Procedure: as §5, §6, §9, §3
For bone labeling, tetracycline was administered 5 days before euthanasia, and calcein was administered 2 days before euthanasia (at an interval of 3 days). The animals were killed 36 hours after calcein administration. […]
as §15
Non-decalcified hard tissue sample: a coronal section tissue of proximal left tibia ½ (length: about 1.5 cm) was used. […] The non-decalcified hard tissue sample was stained by Villanueva staining and was used for bright-field observation and fluorescent observation, and quantitative bone morphometry. […]
Regarding growth disorder, there was the possibility that administration over a period of 6 weeks would not cause a change leading to generation of a difference in femur length, and therefore the growth cartilage plate width and the longitudinal growth rate were histologically measured using the non-decalcified tissue and the decalcified tissue to evaluate growth disorder (“Modern Bone Histomorphometry”, 2014, WENET, Inc.).
In FIG. 10-1(B), the part labeled in parallel to the growth cartilage and at a distal position represents the region labeled 2 days before euthanasia (white lower arrow), and the part labeled in parallel and at a further distal position represents the region labeled 5 days before euthanasia (white upper arrowhead). The bone growth rate was evaluated on the basis of the distance between the two labeled regions.

serum osteocalcin [13] = test: Bone formation marker (serum osteocalcin) by ELISA, pediatric steroid-induced osteoporosis model rats; settings: GC model rats, age of 12 weeks, vs. GC group
Procedure: as §5, §6, §7, §8

[14] = Compression mechanical test of lumber vertebral body and distal femur metaphysis, growing healthy rats; settings: age of 12 weeks, vs. Ct1 group
Procedure: as §1, §2, §3
The second, third, fourth and sixth lumber vertebral bodies and the distal metaphysis of the left femur were subjected to a compression test, and the ultimate load (maximum load endured before fracture), stiffness (resistance to deformation) and toughness (energy required before fracture) were evaluated.

[15] = Confirmation of the prednisolone pellet model of pediatric steroid-induced osteoporosis; settings: 2, 4 and 6 weeks after implantation of Prednisolone 25 mg/pellet/60 days
Procedure: as §6
Prednisolone 25 mg/pellet/60 days is administered at a dose of 0.42 mg a day. This dose is equivalent to 3.5 mg/kg/day for a 6-week-old rat (body weight: 120 g), and equivalent to 105 mg/day for a child having a body weight of 30 kg.

[16] = lumber vertebra, age of 12 weeks
[17] = age of 6 weeks to 12 weeks, vs. GC group
[18] = high-dosage administration group
[19] = proximal tibia, age of 12 weeks, vs. Ct1 group
[20] = proximal tibia, age of 12 weeks, vs. Sham, GC and GC+Siglec-15 Ab groups
[21] = distal femur metaphysis compression test
[22] = lumber vertebra compression test

## NCCCC(O)(P(=O)(O)O)P(=O)(O)O [ALN, Alendronate]
[1]; distal femur, age of 12 weeks
  BMD value (DXA): increased depending on the dosage
  trabecular bone mass (3D-CT): increased depending on the dosage
[1]; long bone, particularly high-dosage group
  bone trabecular thickness (histological): increased
[1]; [16]
  bone mass in the primary spongiosa (3D-CT): particularly increased
  BMD value (DXA): increased depending on the dosage
  trabecular bone mass (3D-CT): increased depending on the dosage
Serum TRACP-5b [2]; GC model rats, in contrast to GC group
  serum TRACP-5b level: significantly decreased
[3]
  maximum stress: tended to increase, and were not significantly different
  toughness: tended to increase, and were not significantly different
Osteoclasts [4]
  number of TRACP positive cells in the primary spongiosa region: significantly decreased
Osteoclasts [5]; lumber vertebra
  number of TRACP positive cells in the secondary spongiosa region: decreased
Osteoclasts [5]; proximal tibia
  number of TRACP positive cells in primary spongiosa region: evidently decreased
  number of TRACP positive cells in secondary spongiosa region: decreased
[6]; [17]
  amount of change in body weight: no significant difference
  amount of change in femur length: no significant difference
  amount of change in head trunk length: no significant difference
[6]; [18]
  femur length: tended to decrease
  head trunk length: tended to decrease
[7]
  femur length: decreased
  head trunk length: decreased
[8]; age of 12 weeks, ALN particularly high dosage
  growth cartilage plate width (3D-CT image): decreased
[8]; age of 12 weeks, vs. Ct1 group, ALN particularly high dosage
  shape of the proximal tibia in 3D-CT images: cup-like shape
[8]; proximal tibia, age of 12 weeks
  arrangement of safranine O staining positive growth cartilage regions: disordered arrangement
[8]; [19]
  growth cartilage width (tissue sample): decreased; also recorded: significantly inferior
  safranine O staining positive regions in the bone in the primary spongiosa region: expanded
[8]; proximal tibia, calcein labeling 7 and 3 days before euthanasia, vs. Ct1 group
  bone growth rate: low bone growth rate; also recorded: significantly inferior
Serum osteocalcin [9]
  serum osteocalcin level: not significantly different
Serum TRACP-5b [10]
  serum TRACP-5b level: decreased depending on the dosage
[11]; vs. GC group
  BMD of the distal femur (DXA): increased in a dosage-dependent manner
[11]; distal femur metaphysis
  bone mass (3D-CT), region immediately above the growth plate to the proximal femur: increased in a dosage-dependent manner
[11]; secondary spongiosa region of distal femur, vs. GC group, ALN high dosage
  bone mass (BV/TV): significantly increased
[12]; age of 12 weeks, vs. Sham group, ALN high dosage
  shape of the proximal tibia in 3D-CT images: cup-like (cupping) shape
[12]; [20]
  growth cartilage width: tended to slightly decrease, but was not statistically significantly different
  safranine O staining positive regions (cartilage matrix) in the bone in the primary spongiosa region: more safranine O staining positive (red) regions
[12]; proximal tibia, tetracycline/calcein labeling, among Sham, GC and treated groups
  bone growth rate: no significant difference
Serum osteocalcin [13]
  serum osteocalcin level: not significantly different
[14]; [21]
  stiffness: increased in a dosage-dependent manner
  toughness: increased in a dosage-dependent manner
  ultimate load: increased in a dosage-dependent manner
[14]; [22]
  stiffness: significantly increased
  ultimate load: significantly increased

## C[C@]12C=CC(=O)C=C1CC[C@@H]1[C@@H]2[C@@H](O)C[C@@]2(C)[C@H]1CC[C@]2(O)C(=O)CO [prednisolone, Prednisolone]
Serum TRACP-5b [2]; GC group (prednisolone pellet + vehicle)
  increase of the level of TRACP-5b: 75%
[15]
  maximum stress of the femur: decreased
  maximum stress of the lumber vertebra: decreased
[15]; 6-week-old female rat
  femur BMD: decreased

From patent publication US20200115446A1 (NATIONAL UNIVERSITY CORPORATION HOKKAIDO UNIVERSITY, priority 2017, published 2020)
